Tests used:
[1] = biological target: T1, Jack bean Urease (Canavalia ensiformis, UniProt P07374); test: biochemical
T1 construct: purchased Sigma
Method: Urease activity was obtained by measuring ammonia production using the indophenol method as described by Bankeu et al., (2017). […] Reaction mixtures with 25 μL of enzyme (Jack bean Urease bought from Sigma) solution and 55 μL of buffers containing 100 mM urea were incubated with 5 μL of compounds 1—4 (1 mM concentration) at 30 °C for 15 min in 96-well plates. In fact, 45 μL each of phenol reagent (1% w/v phenol and 0.005% w/v sodium nitroprusside) and 70 μL of alkali reagent (0.5% w/v NaOH and 0.1% active chloride NaOCl) were added to each well. The absorbance at 630 nm was recorded after 50 min, using a microplate reader (Molecular Device, USA). All reactions were performed in triplicate in a final volume of 200 μL. The results (change in absorbance per min) were processed by using Soft Max Pro software (Molecular Device, USA). All the assays were performed at pH 8.2 (0.01 M K2HPO4·3H2O, 1 mM EDTA and 0.01 M LiCl). Percentage inhibitions were calculated from the formula (Eq. 1):1 Urease inhibition%=100-ODtest/ODcontrol×100 where OD stands for optical density.
Urease inhibition percentages were used to determine the concentration that inhibit 50% of urease activity (IC50) using GraphPad Prism 5.0, USA.
The resulting data are shown as mean ± SD of three independent assays. One way one analysis of variance (ANOVA) was carried out for the determination of difference between groups (GraphPad Prism 5.0, USA). […] was considered as significant.

T1 sequence (P07374 whole entry, looked up): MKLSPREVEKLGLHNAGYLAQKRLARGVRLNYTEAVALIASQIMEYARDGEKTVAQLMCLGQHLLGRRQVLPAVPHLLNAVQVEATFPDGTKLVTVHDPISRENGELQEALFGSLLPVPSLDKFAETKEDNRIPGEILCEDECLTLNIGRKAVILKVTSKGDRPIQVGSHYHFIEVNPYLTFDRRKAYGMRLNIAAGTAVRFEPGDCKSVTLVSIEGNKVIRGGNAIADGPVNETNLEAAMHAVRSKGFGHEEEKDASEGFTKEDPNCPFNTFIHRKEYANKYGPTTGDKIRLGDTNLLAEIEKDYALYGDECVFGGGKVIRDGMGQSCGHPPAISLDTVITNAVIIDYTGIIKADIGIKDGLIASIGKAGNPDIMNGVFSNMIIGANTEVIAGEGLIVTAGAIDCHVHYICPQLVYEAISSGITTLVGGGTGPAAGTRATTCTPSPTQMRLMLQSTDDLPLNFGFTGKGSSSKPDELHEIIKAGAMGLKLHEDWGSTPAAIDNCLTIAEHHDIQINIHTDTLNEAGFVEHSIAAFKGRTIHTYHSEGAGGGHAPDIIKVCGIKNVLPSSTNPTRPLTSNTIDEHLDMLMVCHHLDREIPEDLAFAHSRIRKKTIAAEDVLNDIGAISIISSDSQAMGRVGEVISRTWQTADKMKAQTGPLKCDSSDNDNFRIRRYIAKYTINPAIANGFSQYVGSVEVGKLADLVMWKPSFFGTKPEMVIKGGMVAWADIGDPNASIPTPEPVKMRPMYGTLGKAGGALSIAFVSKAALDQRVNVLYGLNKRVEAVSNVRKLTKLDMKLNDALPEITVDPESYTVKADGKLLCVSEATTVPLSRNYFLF

SMILES: CC1(C)CC[C@]2(C)CC[C@]3(C)C(=CCC4[C@@]5(C)Cc6c([nH]c7ccccc67)C(C)(C)[C@@H]5CC[C@]43C)[C@H]2C1 (stereo partly drawn) [Compound 4, (4aR,6aS,6bR,8aR,15aR,17bS)-2,2,4a,6a,6b,9,9,15a-Octamethyl-2,3,4,4a,5,6,6a,6b,7,8,8a,9,10,15,15a,15b,16,17b-octadecahydro-1H-chryseno[2,1-b]carbazole]
- IC50 [1]: 17.9 ± 0.45 µM

SMILES: COc1ccc2[nH]c3c(c2c1)C[C@]1(C)C2CC=C4[C@H]5CC(C)(C)CC[C@]5(C)CC[C@@]4(C)[C@]2(C)CC[C@H]1C3(C)C (stereo partly drawn) [Compound 3, (4aR,6aS,6bR,8aR,15aR,17bS)-13-Methoxy-2,2,4a,6a,6b,9,9,15a-octamethyl-2,3,4,4a,5,6,6a,6b,7,8,8a,9,10,15,15a,15b,16,17b-octadecahydro-1H-chryseno[2,1-b]carbazole]
- IC50 [1]: 22.2 ± 0.9 µM

SMILES: CC1(C)CCC2(C)CCC3(C)C(=CCC4C5(C)CC/C(=N\Nc6ccc([N+](=O)[O-])cc6[N+](=O)[O-])C(C)(C)C5CCC43C)C2C1 (centres unmarked) [Compound 2, (E)-1-(2,4-Dinitrophenyl)-2-(4,4,6a,6b,8a,11,11,14b-octamethyl-1,4,4a,5,6,6a,6b,7,8,8a,9,10,11,12,12a,14,14a,14b-octadecahydropicen-3(2H)-ylidene)hydrazine]
- melting point: 260 °C
- IC50 [1]: 24.6 ± 0.17 µM

SMILES: CC1(C)CC[C@]2(C)CC[C@]3(C)C(=CCC4[C@@]5(C)CCC(=O)C(C)(C)[C@@H]5CC[C@]43C)[C@H]2C1 (stereo partly drawn) [Compound 1, β-Amyrenone]
- IC50 [1]: 14.5 ± 0.21 µM

Reference: article PMC6328428, “Synthesis, Urease Inhibition and Molecular Modelling Studies of Novel Derivatives of the Naturally Occurring β-Amyrenone” (Natural Products and Bioprospecting, 2018)
